# Columns and labels:
# [1] = molecular target: Serine/threonine-protein kinase mTOR (Homo sapiens, UniProt P42345); experiment: Inhibition of N-terminal FLAG-tagged recombinant human mTOR (1362 to end residues) using ULight-4E-BP1 (Thr37/46) peptide as substrate incubated for 30 mins in presence of ATP by LANCE ultra assay
# [2] = molecular target: T1, Phosphatidylinositol 4,5-bisphosphate 3-kinase catalytic subunit delta isoform (Homo sapiens, UniProt O00329); experiment: Inhibition of PI3Kdelta (unknown origin) using PIP2 as substrate incubated for 60 mins in presence of ATP by ADP-Glo assay
# T1 sequence (O00329 whole entry): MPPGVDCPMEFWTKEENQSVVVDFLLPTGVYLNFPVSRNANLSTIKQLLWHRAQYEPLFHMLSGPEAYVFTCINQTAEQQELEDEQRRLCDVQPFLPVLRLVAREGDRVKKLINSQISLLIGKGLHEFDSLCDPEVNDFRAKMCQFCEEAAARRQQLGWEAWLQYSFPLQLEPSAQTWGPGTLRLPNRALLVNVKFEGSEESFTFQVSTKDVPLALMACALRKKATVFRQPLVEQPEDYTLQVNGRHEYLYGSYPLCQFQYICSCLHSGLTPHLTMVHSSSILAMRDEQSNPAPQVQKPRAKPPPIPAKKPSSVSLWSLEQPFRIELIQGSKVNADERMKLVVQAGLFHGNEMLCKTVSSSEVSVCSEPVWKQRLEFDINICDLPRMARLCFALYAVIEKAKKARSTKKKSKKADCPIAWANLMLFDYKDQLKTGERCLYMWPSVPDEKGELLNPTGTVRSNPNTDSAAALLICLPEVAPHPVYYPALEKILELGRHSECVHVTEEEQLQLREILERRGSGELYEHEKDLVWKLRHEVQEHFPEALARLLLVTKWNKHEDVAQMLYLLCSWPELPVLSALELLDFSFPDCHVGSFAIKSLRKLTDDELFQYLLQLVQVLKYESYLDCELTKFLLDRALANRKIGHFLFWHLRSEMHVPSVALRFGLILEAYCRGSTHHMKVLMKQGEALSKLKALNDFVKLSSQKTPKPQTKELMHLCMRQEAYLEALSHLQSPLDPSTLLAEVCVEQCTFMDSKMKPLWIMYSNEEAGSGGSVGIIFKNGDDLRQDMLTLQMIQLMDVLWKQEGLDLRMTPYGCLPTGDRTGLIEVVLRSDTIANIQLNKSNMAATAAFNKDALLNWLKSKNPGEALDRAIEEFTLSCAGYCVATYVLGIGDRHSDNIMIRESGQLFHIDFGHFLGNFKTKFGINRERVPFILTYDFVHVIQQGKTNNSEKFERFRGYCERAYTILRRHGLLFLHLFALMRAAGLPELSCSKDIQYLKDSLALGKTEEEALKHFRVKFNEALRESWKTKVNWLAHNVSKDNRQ
# [3] = Half life in fasted Sprague-Dawley rat at 10 mg/kg, po measured for 24 hrs by LC-MS/MS analysis; assay type: ADME, organism-based; details: in vivo
# [4] = Toxicity in nude BALB/c mouse xenografted with human HL-60 cells assessed as toxic sign in kidney at 5 to 10 mg/kg, ip administered for 21 days consecutively by H and E staining based analysis; assay type: organism-based; details: in vivo, 504 h, dose 5-10 mg/kg, time 21 day
# [5] = AUC (0 to infinity) in fasted Sprague-Dawley rat at 2 mg/kg, iv measured for 24 hrs by LC-MS/MS analysis; assay type: ADME, organism-based; details: in vivo
# [6] = Apparent volume of distribution in fasted Sprague-Dawley rat at 2 mg/kg, iv measured for 24 hrs by LC-MS/MS analysis; assay type: ADME, organism-based; details: in vivo, read-out: Vz
# HL-60 [7] = experiment: Induction of apoptosis in human HL-60 cells assessed as viable cells at 0.25 uM incubated for 48 hrs by Annexin V-FITC/PI staining based flow cytometry (reference value: 97.4 %); assay type: functional; details: read-out: Activity
# [8] = molecular target: Phosphatidylinositol 4,5-bisphosphate 3-kinase catalytic subunit beta isoform (Homo sapiens, UniProt P42338); experiment: Inhibition of PI3Kbeta (unknown origin) using PIP2 as substrate incubated for 60 mins in presence of ATP by ADP-Glo assay
# [9] = Toxicity in nude BALB/c mouse xenografted with human HL-60 cells assessed as body weight change at 5 to 10 mg/kg, ip administered for 21 days consecutively; assay type: organism-based; details: in vivo, 504 h, dose 5-10 mg/kg, time 21 day
# HL-60 [10] = experiment: Induction of apoptosis in human HL-60 cells assessed as viable cells at 1 uM incubated for 48 hrs by Annexin V-FITC/PI staining based flow cytometry (reference value: 97.4 %); assay type: functional; details: read-out: Activity
# HL-60 [11] = experiment: Induction of apoptosis in human HL-60 cells assessed as viable cells at 0.5 uM incubated for 48 hrs by Annexin V-FITC/PI staining based flow cytometry (reference value: 97.4 %); assay type: functional; details: read-out: Activity
# [12] = AUC (0 to t) in fasted Sprague-Dawley rat at 2 mg/kg, iv measured for 24 hrs by LC-MS/MS analysis; assay type: ADME, organism-based; details: in vivo
# [13] = AUC (0 to infinity) in fasted Sprague-Dawley rat at 10 mg/kg, po measured for 24 hrs by LC-MS/MS analysis; assay type: ADME, organism-based; details: in vivo
# [14] = Toxicity in nude BALB/c mouse xenografted with human HL-60 cells assessed as toxic sign in lung at 5 to 10 mg/kg, ip administered for 21 days consecutively by H and E staining based analysis; assay type: organism-based; details: in vivo, 504 h, dose 5-10 mg/kg, time 21 day
# [15] = AUC (0 to t) in fasted Sprague-Dawley rat at 10 mg/kg, po measured for 24 hrs by LC-MS/MS analysis; assay type: ADME, organism-based; details: in vivo
# [16] = Cmax in fasted Sprague-Dawley rat at 10 mg/kg, po measured for 24 hrs by LC-MS/MS analysis; assay type: ADME, organism-based; details: in vivo
# [17] = Toxicity in nude BALB/c mouse xenografted with human HL-60 cells assessed as toxic sign in spleen at 5 to 10 mg/kg, ip administered for 21 days consecutively by H and E staining based analysis; assay type: organism-based; details: in vivo, 504 h, dose 5-10 mg/kg, time 21 day
# [18] = molecular target: Phosphatidylinositol 4,5-bisphosphate 3-kinase catalytic subunit alpha isoform (Homo sapiens, UniProt P42336); experiment: Inhibition of PI3Kalpha (unknown origin) using PIP2 as substrate incubated for 60 mins in presence of ATP by ADP-Glo assay
# [19] = Tmax in fasted Sprague-Dawley rat at 10 mg/kg, po measured for 24 hrs by LC-MS/MS analysis; assay type: ADME, organism-based; details: in vivo
# [20] = Toxicity in nude BALB/c mouse xenografted with human HL-60 cells assessed as toxic sign in heart at 5 to 10 mg/kg, ip administered for 21 days consecutively by H and E staining based analysis; assay type: organism-based; details: in vivo, 504 h, dose 5-10 mg/kg, time 21 day
# [21] = Clearance in fasted Sprague-Dawley rat at 2 mg/kg, iv measured for 24 hrs by LC-MS/MS analysis; assay type: ADME, organism-based; details: in vivo
# [22] = molecular target: Phosphatidylinositol 4,5-bisphosphate 3-kinase catalytic subunit gamma isoform (Homo sapiens, UniProt P48736); experiment: Inhibition of PI3Kgamma (unknown origin) using PIP2 as substrate incubated for 60 mins in presence of ATP by ADP-Glo assay
# [23] = Half life in fasted Sprague-Dawley rat at 2 mg/kg, iv measured for 24 hrs by LC-MS/MS analysis; assay type: ADME, organism-based; details: in vivo
# [24] = Oral bioavailability in fasted Sprague-Dawley rat at 10 mg/kg measured for 24 hrs by LC-MS/MS analysis; assay type: ADME, organism-based; details: in vivo
# [25] = Toxicity in nude BALB/c mouse xenografted with human HL-60 cells assessed as toxic sign in liver at 5 to 10 mg/kg, ip administered for 21 days consecutively by H and E staining based analysis; assay type: organism-based; details: in vivo, 504 h, dose 5-10 mg/kg, time 21 day
# [26] = MRT (infinity) in fasted Sprague-Dawley rat at 2 mg/kg, iv measured for 24 hrs by LC-MS/MS analysis; assay type: ADME, organism-based; details: in vivo
# [27] = Toxicity in nude BALB/c mouse xenografted with human HL-60 cells assessed as toxic sign in liver at 5 mg/kg, ip administered for 21 days consecutively by H and E staining based analysis; assay type: organism-based; details: in vivo, 504 h, time 21 day
# [28] = Toxicity in nude BALB/c mouse xenografted with human HL-60 cells assessed as toxic sign in lung at 5 mg/kg, ip administered for 21 days consecutively by H and E staining based analysis; assay type: organism-based; details: in vivo, 504 h, time 21 day
# [29] = Antiproliferative activity against human MOLM16 cells incubated for 48 hrs by CCK8 assay; details: MOLM16, 48 h
# [30] = Toxicity in nude BALB/c mouse xenografted with human HL-60 cells assessed as toxic sign in spleen at 5 mg/kg, ip administered for 21 days consecutively by H and E staining based analysis; assay type: organism-based; details: in vivo, 504 h, time 21 day
# MV4-11 = experiment: Antiproliferative activity against human MV4-11 cells incubated for 48 hrs by CCK8 assay; assay type: functional, cell-based; details: MV4-11, 48 h
# EOL1 = experiment: Antiproliferative activity against human EOL1 cells incubated for 48 hrs by CCK8 assay; assay type: functional, cell-based; details: EOL1, 48 h
# [31] = Toxicity in nude BALB/c mouse xenografted with human HL-60 cells assessed as toxic sign in kidney at 5 mg/kg, ip administered for 21 days consecutively by H and E staining based analysis; assay type: organism-based; details: in vivo, 504 h, time 21 day
# [32] = Toxicity in nude BALB/c mouse xenografted with human HL-60 cells assessed as toxic sign in heart at 5 mg/kg, ip administered for 21 days consecutively by H and E staining based analysis; assay type: organism-based; details: in vivo, 504 h, time 21 day
# [33] = Toxicity in nude BALB/c mouse xenografted with human HL-60 cells assessed as body weight change at 5 mg/kg, ip administered for 21 days consecutively; assay type: organism-based; details: in vivo, 504 h, time 21 day
# HL-60 [34] = experiment: Antitumor activity against human HL-60 cells xenografted in nude BALB/c mouse assessed as tumor growth inhibition at 5 mg/kg, ip administered for 21 days consecutively relative to control; assay type: functional; details: HL-60, 504 h, time 21 day, read-out: TGI
# KG-1 = experiment: Antiproliferative activity against human KG-1 cells incubated for 48 hrs by CCK8 assay; assay type: functional, cell-based; details: KG-1, 48 h
# HL-60 [35] = experiment: Antiproliferative activity against human HL-60 cells incubated for 48 hrs by CCK8 assay; assay type: functional, cell-based; details: HL-60, 48 h
# Chain of Phosphatidylinositol 4,5-bisphosphate 3-kinase catalytic subunit beta isoform (P42338 whole entry, canonical isoform): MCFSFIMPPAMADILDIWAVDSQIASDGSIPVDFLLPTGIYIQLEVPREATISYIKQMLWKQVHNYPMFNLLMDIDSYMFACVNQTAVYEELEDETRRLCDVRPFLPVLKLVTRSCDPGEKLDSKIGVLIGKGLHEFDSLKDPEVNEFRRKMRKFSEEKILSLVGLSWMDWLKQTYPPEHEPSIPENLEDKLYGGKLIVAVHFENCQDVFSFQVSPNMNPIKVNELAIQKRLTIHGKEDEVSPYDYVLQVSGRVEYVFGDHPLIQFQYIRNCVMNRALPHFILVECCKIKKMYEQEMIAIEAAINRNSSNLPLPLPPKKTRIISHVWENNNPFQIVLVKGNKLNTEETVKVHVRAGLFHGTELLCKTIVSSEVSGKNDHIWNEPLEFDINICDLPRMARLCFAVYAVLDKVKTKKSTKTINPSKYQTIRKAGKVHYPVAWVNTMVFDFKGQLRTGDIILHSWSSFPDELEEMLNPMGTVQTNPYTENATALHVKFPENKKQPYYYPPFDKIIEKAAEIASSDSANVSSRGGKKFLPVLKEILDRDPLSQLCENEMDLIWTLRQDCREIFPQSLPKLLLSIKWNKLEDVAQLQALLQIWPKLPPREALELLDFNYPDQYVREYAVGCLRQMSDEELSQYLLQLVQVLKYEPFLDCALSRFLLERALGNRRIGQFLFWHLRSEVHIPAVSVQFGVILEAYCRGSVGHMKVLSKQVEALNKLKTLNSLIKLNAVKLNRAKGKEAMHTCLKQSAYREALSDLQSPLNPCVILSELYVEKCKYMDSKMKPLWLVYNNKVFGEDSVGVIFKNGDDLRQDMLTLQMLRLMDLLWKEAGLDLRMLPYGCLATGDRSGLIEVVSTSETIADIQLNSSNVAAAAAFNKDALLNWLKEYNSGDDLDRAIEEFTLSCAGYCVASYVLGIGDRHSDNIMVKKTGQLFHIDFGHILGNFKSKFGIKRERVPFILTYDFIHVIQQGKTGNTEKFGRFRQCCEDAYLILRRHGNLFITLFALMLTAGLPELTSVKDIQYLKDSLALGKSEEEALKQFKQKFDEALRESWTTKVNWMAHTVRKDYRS
# Chain of Phosphatidylinositol 4,5-bisphosphate 3-kinase catalytic subunit gamma isoform (P48736 whole entry, canonical isoform): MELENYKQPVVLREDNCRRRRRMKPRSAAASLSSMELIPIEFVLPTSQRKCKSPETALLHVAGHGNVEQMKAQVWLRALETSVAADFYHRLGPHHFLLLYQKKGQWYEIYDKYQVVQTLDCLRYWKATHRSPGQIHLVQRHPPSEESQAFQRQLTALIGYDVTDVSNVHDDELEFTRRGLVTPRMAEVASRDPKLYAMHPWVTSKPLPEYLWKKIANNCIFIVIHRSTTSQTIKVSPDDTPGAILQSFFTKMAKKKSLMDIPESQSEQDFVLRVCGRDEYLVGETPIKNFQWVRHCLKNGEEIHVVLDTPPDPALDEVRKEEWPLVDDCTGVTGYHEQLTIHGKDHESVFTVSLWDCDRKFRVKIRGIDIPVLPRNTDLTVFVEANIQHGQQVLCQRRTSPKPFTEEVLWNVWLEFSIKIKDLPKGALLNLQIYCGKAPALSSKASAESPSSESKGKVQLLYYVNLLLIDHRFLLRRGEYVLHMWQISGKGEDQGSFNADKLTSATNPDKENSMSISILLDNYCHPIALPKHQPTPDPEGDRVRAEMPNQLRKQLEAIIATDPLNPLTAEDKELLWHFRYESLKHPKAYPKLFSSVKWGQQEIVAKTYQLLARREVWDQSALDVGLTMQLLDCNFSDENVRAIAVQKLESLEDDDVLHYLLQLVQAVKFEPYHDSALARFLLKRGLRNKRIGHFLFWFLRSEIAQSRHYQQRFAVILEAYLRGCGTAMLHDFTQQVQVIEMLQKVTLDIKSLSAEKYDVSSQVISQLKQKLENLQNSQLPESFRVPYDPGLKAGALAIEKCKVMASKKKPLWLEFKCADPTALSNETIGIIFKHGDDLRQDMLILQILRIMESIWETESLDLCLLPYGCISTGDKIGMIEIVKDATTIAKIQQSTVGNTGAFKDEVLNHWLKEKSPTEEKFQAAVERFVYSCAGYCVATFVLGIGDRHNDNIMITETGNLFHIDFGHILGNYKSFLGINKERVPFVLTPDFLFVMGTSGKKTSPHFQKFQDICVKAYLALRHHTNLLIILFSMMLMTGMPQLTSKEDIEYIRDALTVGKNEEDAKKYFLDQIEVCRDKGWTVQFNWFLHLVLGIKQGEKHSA
# Chain of Phosphatidylinositol 4,5-bisphosphate 3-kinase catalytic subunit alpha isoform (P42336 whole entry, canonical isoform): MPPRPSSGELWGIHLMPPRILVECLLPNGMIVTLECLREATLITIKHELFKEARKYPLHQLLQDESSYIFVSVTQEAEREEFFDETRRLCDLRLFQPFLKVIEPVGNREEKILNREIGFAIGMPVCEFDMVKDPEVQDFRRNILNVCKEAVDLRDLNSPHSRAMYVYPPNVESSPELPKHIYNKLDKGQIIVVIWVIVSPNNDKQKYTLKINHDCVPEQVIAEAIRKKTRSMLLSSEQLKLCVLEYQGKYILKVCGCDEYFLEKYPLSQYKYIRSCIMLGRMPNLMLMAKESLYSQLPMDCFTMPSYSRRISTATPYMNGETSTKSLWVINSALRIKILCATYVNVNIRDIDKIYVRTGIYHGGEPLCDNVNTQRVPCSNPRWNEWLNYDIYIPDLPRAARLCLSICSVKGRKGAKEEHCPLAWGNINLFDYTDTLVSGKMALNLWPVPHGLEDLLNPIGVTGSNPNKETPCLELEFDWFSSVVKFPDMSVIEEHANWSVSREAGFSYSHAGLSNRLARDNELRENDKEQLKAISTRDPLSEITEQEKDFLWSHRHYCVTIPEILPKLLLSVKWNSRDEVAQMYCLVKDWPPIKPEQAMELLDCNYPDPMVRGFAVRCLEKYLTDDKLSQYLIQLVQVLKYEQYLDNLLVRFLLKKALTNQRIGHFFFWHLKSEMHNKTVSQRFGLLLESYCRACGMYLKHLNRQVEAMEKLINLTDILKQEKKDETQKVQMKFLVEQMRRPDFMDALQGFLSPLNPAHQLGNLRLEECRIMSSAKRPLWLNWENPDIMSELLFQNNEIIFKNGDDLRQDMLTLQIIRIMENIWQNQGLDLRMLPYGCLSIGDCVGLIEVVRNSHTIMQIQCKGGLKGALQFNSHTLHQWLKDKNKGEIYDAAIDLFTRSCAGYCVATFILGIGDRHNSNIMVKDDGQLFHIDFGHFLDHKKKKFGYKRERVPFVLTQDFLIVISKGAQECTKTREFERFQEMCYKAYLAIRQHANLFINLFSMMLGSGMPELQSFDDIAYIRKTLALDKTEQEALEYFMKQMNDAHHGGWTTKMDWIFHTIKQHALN
smiles,measurement,setting,value
O=S(=O)(Nc1cc(-c2cnc3[nH]ncc3c2)cnc1Cl)c1ccccc1,IC50,[1],32.2 nM
O=S(=O)(Nc1cc(-c2cnc3[nH]nc(-c4ccccc4)c3c2)cnc1Cl)c1ccccc1,IC50,[2],1.24 nM
same,IC50,[1],2.65 nM
O=S(=O)(Nc1cc(-c2cnc3[nH]nc(-c4ccncc4)c3c2)cnc1Cl)c1ccc(F)cc1,half-life,[3],4.48 h
same,Activity,[4],Non-Toxic
same,AUC(0-inf),[5],903 ng·h/mL
same,Vd,[6],7.26 L/kg
same,viability at 0.25 µM,HL-60 [7],96.4%
same,IC50,[8],1.57 nM
same,Activity,[9],Non-Toxic
same,viability at 1 µM,HL-60 [10],53.5%
same,viability at 0.5 µM,HL-60 [11],90.4%
same,AUC(0-t) at 24 h,[12],898 ng·h/mL
same,AUC(0-inf),[13],121 ng·h/mL
same,Activity,[14],Non-Toxic
same,AUC(0-t) at 24 h,[15],104 ng·h/mL
same,Cmax,[16],15.5 ng/mL
same,Activity,[17],Non-Toxic
same,IC50,[18],0.65 nM
same,Tmax,[19],2.8 h
same,Activity,[20],Non-Toxic
same,clearance,[21],37 mL/min/kg
same,IC50,[22],0.65 nM
same,half-life,[23],2.29 h
same,bioavailability,[24],2.68%
same,Activity,[25],Non-Toxic
same,MRT inf,[26],0.593 h
O=S(=O)(Nc1cc(-c2cnc3[nH]nc(-c4ccncc4)c3c2)cnc1Cl)c1ccccc1,IC50,[2],0.67 nM
same,IC50,[8],4.37 nM
same,IC50,[18],1.17 nM
same,IC50,[1],4.26 nM
same,IC50,[22],7.37 nM
Cn1c(=O)n(-c2ccc(C(C)(C)C#N)cc2)c2c3cc(-c4cnc5ccccc5c4)ccc3ncc21 [DACTOLISIB],Activity,[27],Non-Toxic
same,Activity,[28],Non-Toxic
same,IC50,[29],500 nM
same,Activity,[30],Non-Toxic
same,IC50,MV4-11,30 nM
same,IC50,EOL1,1050 nM
same,Activity,[31],Non-Toxic
same,Activity,[32],Non-Toxic
same,Activity,[33],Non-Toxic
same,inhibition in vivo at 5 mg/kg,HL-60 [34],62%
same,IC50,KG-1,1310 nM
same,IC50,HL-60 [35],510 nM
